# According to publication PMC7002685, “Inhibition of vascular calcification by inositol phosphates derivatized with ethylene glycol oligomers” (Nature Communications, 2020):
# Biological target: T1, Muscarinic M1 (Homo sapiens, UniProt P11229)
# T1 construct: purchased Eurofins Panlabs Discovery Services Taiwan, Ltd
# Experiment: Off-target 252610
# Format: binding
# Protocol: The potential off-target activity of 10 µM (OEG2)2-IP4 was assessed against a panel of 87 enzymes, receptors, or ion channels that are used in standard safety pharmacology screens.
# 3.2. Off-target screening assay
# The experiments were conducted by a contract research organization (Eurofins Panlabs Discovery Services Taiwan, Ltd.) and details on the respective assays can be retrieved via the catalog number provided in Supplementary Table 11 from the company’s webpage
# (https://www.eurofinsdiscoveryservices.com/). […]
# At sacrifice the left tibia of animals of the rat model with dietary adenine/high-phosphate-induced uremia and VC was collected, fixed with 70% v/v EtOH and embedded in methyl methacrylate. The trabecular bone compartment is known to be the most metabolic active i.e. actively re-structured bone compartment in CKD. Therefore, histomorphometric and micro-computed tomography (µCT) analysis of bone was performed on the trabecular compartment. Tibial sections were Goldner-stained for histomorphometric analysis of the proximal metaphysis using the AxioVision Release 4.5 software, as […]
# described previously5. […]
# T1 sequence (P11229 whole entry): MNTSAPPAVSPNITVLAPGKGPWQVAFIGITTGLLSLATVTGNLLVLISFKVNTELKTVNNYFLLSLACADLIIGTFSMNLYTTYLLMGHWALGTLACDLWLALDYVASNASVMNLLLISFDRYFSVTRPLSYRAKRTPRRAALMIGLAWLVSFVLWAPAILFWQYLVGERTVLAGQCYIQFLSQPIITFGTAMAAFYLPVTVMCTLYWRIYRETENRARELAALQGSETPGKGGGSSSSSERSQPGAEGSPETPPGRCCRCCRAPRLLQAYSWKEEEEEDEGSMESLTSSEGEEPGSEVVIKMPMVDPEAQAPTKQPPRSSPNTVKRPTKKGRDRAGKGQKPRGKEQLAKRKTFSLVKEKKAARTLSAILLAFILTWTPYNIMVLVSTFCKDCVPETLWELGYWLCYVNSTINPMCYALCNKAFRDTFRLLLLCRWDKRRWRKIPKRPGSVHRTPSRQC
structure (smiles),measurement,value
"COCCOCCO[C@@H]1[C@@H](OP(=O)(O)O)[C@H](OCCOCCOC)[C@@H](OP(=O)(O)O)[C@@H](OP(=O)(O)O)[C@H]1OP(=O)(O)O [(OEG2)2-IP4, 4,6-Di-O-(methoxy-diethyleneglycol)-myo-inositol-1,2,3,5-tetrakis(phosphate)]",inhibition at 10 µM,-6%
